# Test results: patent US6589957B2, “Compounds and methods of use for treatment of neurogenic inflammation” (Harbor Branch Oceanographic Institution, Inc., priority 1998, dated 2003)
# System: resiniferatoxin (RTX)-induced mouse ear edema
# Test: Inhibition of resiniferatoxin-induced inflammation (edema) of the mouse ear
# Type: in vivo
# Details: 50 μg/ear topically in acetone together with RTX 0.1 μg/ear, 30-minute incubation, relative to control group edema
# Method: Inhibition of Resiniferatoxin-Induced Inflammation (Edema) of the Mouse Ear
# Induction of mouse ear edema can be conducted by known methods (Inoue, 1-f., N. Nagata, Y. Koshffiara [1993]). Compounds to be tested for anti-neurogenic inflammatory activity are topically applied in acetone to the ears of mice in a solution that includes the edema-causing irritant resiniferatoxin (RTX). RTX alone (0.1 μg/ear) or in combination with various dilutions of test compound are applied to both sides of the left ears (5 mice per treatment group) and acetone is applied to all right ears. After a 30-minute incubation, the mice are sacrificed, the ears removed, and bores taken and weighed. Edema is measured by subtracting the weight of the right ear (acetone control) from the weight of the left ear (treated). Results are recorded as % decrease (inhibition) or % increase (potentiation) in edema relative to the control group edema.
# Bis-heterocycle compounds of the subject invention, e.g., the bis-indole compounds, show significant anti-inflammatory properties.
row,SMILES,inhibition of RTX-induced edema
1,CC(c1cnc(N)[nH]1)c1nc(C(=O)c2c[nH]c3cc(O)ccc23)[nH]c1-c1c[nH]c2cc(Br)ccc12 (stereo not drawn) [topsentin e],approximately 88.4%
2,CC1c2[nH]c(N)nc2C2(O)CC1c1c(-c3cnc(-c4c[nH]c5cc(Br)ccc45)c(=O)[nH]3)c[nH]c1C2=O (stereo not drawn) [dragmacidin f],approximately 69.9%
3,Nc1ncc(C(Cc2nc(C(=O)c3c[nH]c4cc(O)ccc34)[nH]c2-c2c[nH]c3cc(Br)ccc23)C(=O)O)[nH]1 (stereo not drawn) [topsentin d],approximately 96.9%
